Measurements: ChEMBL document CHEMBL5303304, “EUbOPEN Chemogenomics Library - IncuCyte” (2023)

Experiments:
Assay type in all cases: toxicity, cell-based
Fibroblast = experiment: Incucyte cell viability with human fibroblast; conditions: 10 µM, compound concentration 10 uM
HEK-293T = experiment: Incucyte cell viability with HEK293T; conditions: human, 10 µM, compound concentration 10 uM
U2OS = experiment: Incucyte cell viability with U2OS; conditions: human, 10 µM, compound concentration 10 uM
Also: unitless GR value; below 1 slowed growth and below 0 cell loss.

Structure (SMILES) | Growth Rate (Fibroblast; 6 h, replicate number 1) | Growth Rate (Fibroblast; 12 h, replicate number 1) | Growth Rate (Fibroblast; 12 h, replicate number 2) | Growth Rate (Fibroblast; 18 h, replicate number 1) | Growth Rate (Fibroblast; 24 h, replicate number 1) | Growth Rate (HEK-293T; 6 h, replicate number 1) | Growth Rate (HEK-293T; 6 h, replicate number 2) | Growth Rate (HEK-293T; 12 h, replicate number 1) | Growth Rate (HEK-293T; 12 h, replicate number 2) | Growth Rate (HEK-293T; 18 h, replicate number 1) | Growth Rate (HEK-293T; 18 h, replicate number 2) | Growth Rate (HEK-293T; 24 h, replicate number 1) | Growth Rate (U2OS; 0 h, replicate number 2) | Growth Rate (U2OS; 6 h, replicate number 1) | Growth Rate (U2OS; 12 h, replicate number 2) | Growth Rate (U2OS; 24 h, replicate number 1) | Growth Rate (HEK-293T; 0 h, replicate number 2) | Growth Rate (U2OS; 6 h, replicate number 2) | Growth Rate (U2OS; 24 h, replicate number 2) | Growth Rate (Fibroblast; 6 h, replicate number 2) | also measured
Cn1nc(-c2ccc(C(N)=O)cc2)c2ccccc2c1=O | 0.25 | 0.99 | 0.65 | 0.84 | 1 | 0.11 | 0.45 | 0.75 | 0.4 | 0.73 | 0.55 | 0.79 | 0.98 | 0.58 | 0.97 | 0.96 |  |  |  |  | Growth Rate (HEK-293T; 24 h, replicate number 2): 0.74; Growth Rate (U2OS; 12 h, replicate number 1): 0.8; Growth Rate (U2OS; 18 h, replicate number 1): 0.93
Cc1cc(S(=O)(=O)N2CC(C)(C)c3cc(-c4ccc(C(F)(F)F)cc4)ccc32)ccc1OCC(=O)O | 0.92 |  |  |  |  | 0.72 | 0.73 | 0.7 | 0.81 | 0.71 | 0.95 | 0.79 | -0.69 | 0.69 | 0.54 |  | -0.17 | 0.68 | 0.98 |  | Growth Rate (Fibroblast; 0 h, replicate number 1): -0.12; Growth Rate (Fibroblast; 0 h, replicate number 2): -0.87; Growth Rate (HEK-293T; 0 h, replicate number 1): 0.52; Growth Rate (U2OS; 18 h, replicate number 2): 0.8
O=C1CCC(N2Cc3cc(CNC(=O)C(F)(F)c4ccc(Cl)cc4)ccc3C2=O)C(=O)N1 (centres undefined) |  |  | 0.51 |  |  |  |  | 0.83 |  | 0.81 | 1 | 0.89 | 0.39 | 0.81 | 0.98 | 0.99 | 0.81 | 0.89 | 0.85 |  | Growth Rate (Fibroblast; 18 h, replicate number 2): 0.98; Growth Rate (Fibroblast; 24 h, replicate number 2): 0.99; Growth Rate (U2OS; 12 h, replicate number 1): 0.97
CN1CCN(c2nc(N)c3ccccc3n2)CC1 | 0.45 | -1 | 0.67 | 0.78 |  |  | 0.91 |  |  |  |  |  | -0.89 | 0.43 | 0.53 | 0.77 | 0.8 | 0.36 | 0.83 |  | Growth Rate (HEK-293T; 0 h, replicate number 1): 0.4; Growth Rate (U2OS; 12 h, replicate number 1): 0.81; Growth Rate (U2OS; 18 h, replicate number 1): 0.76
CC(C)(O)c1cn(-c2ccc(-c3cccc(S(C)(=O)=O)c3)cc2)c(C(C)(C)c2ccccc2Cl)n1 [BMS-779788] | -0.03 | 0.66 | 0.55 | 0.36 | 0.75 |  | 0.58 | 0.97 | 0.93 | 0.81 | 0.87 | 0.9 | 0.31 |  | 0.79 |  |  | 0.61 | 0.7 | 0.64 | Growth Rate (Fibroblast; 18 h, replicate number 2): 0.78; Growth Rate (Fibroblast; 24 h, replicate number 2): 0.63; Growth Rate (HEK-293T; 0 h, replicate number 1): -0.7; Growth Rate (HEK-293T; 24 h, replicate number 2): 0.92; Growth Rate (U2OS; 18 h, replicate number 2): 0.76
C/C(=C\C(=O)Nc1ccccc1C(=O)[O-])c1ccc2ccccc2c1.[Na+] | 0.57 |  | 0.94 | 0.97 | 0.83 |  |  |  |  |  |  |  |  | 0.69 |  | 0.94 | 0.69 |  |  | -0.21 | Growth Rate (Fibroblast; 0 h, replicate number 2): -0.44; Growth Rate (HEK-293T; 0 h, replicate number 1): 0.79; Growth Rate (U2OS; 0 h, replicate number 1): 0.38; Growth Rate (U2OS; 12 h, replicate number 1): 0.95; Growth Rate (U2OS; 18 h, replicate number 1): 0.83
CCOc1ccccc1C(=O)NCC1(N2CCN(CC)CC2)CCCCC1 |  |  | 0.93 | -0.25 | 0.45 | 0.23 | -0.02 | -0.11 | 0.31 | 0.24 | 0.44 | 0.44 | -0.99 |  | 0.88 |  |  | 0.56 | 0.94 | -0.9 | Growth Rate (Fibroblast; 0 h, replicate number 1): -0.95; Growth Rate (Fibroblast; 0 h, replicate number 2): -0.98; Growth Rate (Fibroblast; 24 h, replicate number 2): 0.83; Growth Rate (HEK-293T; 0 h, replicate number 1): 0.98; Growth Rate (HEK-293T; 24 h, replicate number 2): 0.46; Growth Rate (U2OS; 0 h, replicate number 1): -0.19; Growth Rate (U2OS; 18 h, replicate number 2): 0.86
CN(C)Cc1cccc(NC(=C2C(=O)Nc3cc(C(N)=O)ccc32)c2ccccc2)c1 |  | -0.97 | 0.87 | -0.83 | 0.13 |  |  |  |  |  |  |  | -0.78 |  |  |  | -0.24 |  |  | 0.24 | Growth Rate (Fibroblast; 0 h, replicate number 1): -0.09; Growth Rate (HEK-293T; 0 h, replicate number 1): 0.9
COc1cc(-c2nn([C@H]3CC[C@H](N4CCN(C(C)=O)CC4)CC3)c3ncnc(N)c23)ccc1NC(=O)c1cc2ccccc2n1C | -0.52 | -0.69 | 0.45 | -0.56 | -0.45 | -0.95 | -0.96 | -0.39 | -0.18 | 0.38 | 0.59 | 0.69 | 0.2 | 0.32 | 0.61 | 0.44 |  | 0.56 | 0.91 | -0.77 | Growth Rate (Fibroblast; 0 h, replicate number 1): -1; Growth Rate (HEK-293T; 24 h, replicate number 2): 0.89; Growth Rate (U2OS; 0 h, replicate number 1): -0.86; Growth Rate (U2OS; 12 h, replicate number 1): 0.44; Growth Rate (U2OS; 18 h, replicate number 1): 0.44; Growth Rate (U2OS; 18 h, replicate number 2): 0.95
CCCCCN1C(=O)C2(COc3cc4c(cc32)OCO4)c2ccccc21 (centres undefined) |  |  | 0.76 | -0.52 | 0.82 | 0.51 | 0.92 |  |  |  |  |  | -1 |  | 0.8 |  | 0.62 | 0.76 | 0.88 | -0.97 | Growth Rate (Fibroblast; 18 h, replicate number 2): 0.91; Growth Rate (Fibroblast; 24 h, replicate number 2): 0.74; Growth Rate (U2OS; 0 h, replicate number 1): -0.63; Growth Rate (U2OS; 18 h, replicate number 2): 0.98
COC1(C#Cc2ccc(Cl)c(-c3ncc4c(n3)-c3sc(NC(C)=O)nc3CC4)c2)CCN(C)CC1 | 0.02 | 0.03 | -0.12 | -0.03 | -0.11 | -0.41 | -0.37 | -0.29 | -0.19 | -0.17 | -0.1 | -0.05 | 0.98 | 0.79 | 0.66 | 0.78 | -1 | 0.62 | 0.62 | -0.27 | Growth Rate (Fibroblast; 18 h, replicate number 2): -0.14; Growth Rate (Fibroblast; 24 h, replicate number 2): -0.15; Growth Rate (HEK-293T; 24 h, replicate number 2): 0.05; Growth Rate (U2OS; 0 h, replicate number 1): 0.64; Growth Rate (U2OS; 12 h, replicate number 1): 0.91; Growth Rate (U2OS; 18 h, replicate number 1): 0.64
Cc1ccc(CNc2ncnc3ccc(-c4ccc(CO)o4)cc23)o1 | -1 |  |  |  |  |  | 0.11 |  | 0.71 |  | 0.69 |  |  |  |  |  |  |  | 0.86 |  | Growth Rate (Fibroblast; 0 h, replicate number 2): 0.71; Growth Rate (HEK-293T; 24 h, replicate number 2): 0.79; Growth Rate (U2OS; 0 h, replicate number 1): -0.83; Growth Rate (U2OS; 18 h, replicate number 2): 0.94
O=C(CCCCCCc1ccccc1)c1ncc(-c2ccccn2)o1 | 0.4 |  | 0.63 | 0.96 | 0.93 | 0.7 |  | 0.79 | 0.88 | 0.76 | 0.88 | 0.8 |  | 0.84 |  | 0.87 |  |  |  | 0.12 | Growth Rate (Fibroblast; 0 h, replicate number 1): -0.98; Growth Rate (Fibroblast; 18 h, replicate number 2): 0.85; Growth Rate (Fibroblast; 24 h, replicate number 2): 0.84; Growth Rate (HEK-293T; 24 h, replicate number 2): 0.97; Growth Rate (U2OS; 0 h, replicate number 1): 0.55; Growth Rate (U2OS; 12 h, replicate number 1): 0.58
FC(F)(F)c1ccc(CNc2ccc(Cc3c[nH]c4ncc(Cl)cc34)cn2)cn1 [PEXIDARTINIB] | 0.64 | 0.87 | 0.34 |  |  |  |  |  |  |  |  |  |  |  |  | 0.95 | -0.38 |  | 0.98 | 0.13 | Growth Rate (Fibroblast; 0 h, replicate number 1): -1; Growth Rate (Fibroblast; 18 h, replicate number 2): 0.9
Cc1ncsc1-c1ccc(CNC(=O)[C@@H]2C[C@H](O)CN2C(=O)[C@@H](NC(=O)C2(F)CC2)C(C)(C)C)c(OCCOc2ccc(CN3CCN(c4cc(-c5ccccc5O)nnc4N)CC3)cc2)c1 |  |  |  |  |  |  |  |  |  |  |  |  |  |  |  | 0.98 | -0.99 |  |  |  | Growth Rate (Fibroblast; 0 h, replicate number 2): 0.56; Growth Rate (HEK-293T; 0 h, replicate number 1): -0.03
